Assay results taken from US8637664B2, “Alkyl 4- [4- (5-oxo-2,3,5, 11a-tetrahydo-5H-pyrrolo [2, 1-c] [1,4] benzodiazepine-8-yloxy)-butyrylamino]-1H-pyrrole-2-carboxylate derivatives and related compounds for the treatment of a proliferative disease” (Spirogen SARL, priority 2005, dated 2014).

What was measured:
calf thymus DNA (CT-DNA) = test: DNA thermal denaturation (melting) studies; type: binding; settings: CT-DNA 100 μM DNAp, compound 20 μM, 37 °C; for Induced ΔTm after incubation 0 hours: pH 7.00, 0 hours; for Induced ΔTm after incubation 4 hours: pH 7.00, 4 hours; for Induced ΔTm after incubation 18 hours: pH 7.00, 18 hours; for Induced ΔTm after incubation 72 hours: pH 7.00, 72 hours
Protocol: The PBD agents were subjected to DNA thermal melting (denaturation) studies (Gregson, S. J., et al., Journal of Medicinal Chemistry, 44(5), 737-748 (2001); Jones, G. B., et al., Anti-Cancer Drug Design, 5(3), 249-264 (1990); McConnaughie, A. W. and; Jenkins, T. C. Journal of Medicinal Chemistry, 38(18), 3488-3501 (1995)) using calf thymus DNA (CT-DNA, type-1, highly polymerized sodium salt; 42% G+C [Sigma]) at a fixed 100 μM (DNAp=50 μM bp) concentration, determined using an extinction coefficient of 6600 (M phosphate)^−1 cm^−1 at 260 nm (Manzini, G., et al., Nucleic Acids Research, 11(24), 8861-8876 (1983)). Solutions were prepared in pH 7.00±0.01 aqueous buffer containing 10 mM NaH2PO4/Na2HPO4 and 1 mM EDTA. Working solutions containing CT-DNA and the test compound (20 μM) were incubated at 37.0±0.1° C. for 0 to 18 hours using an external water bath. Samples were monitored at 260 nm using a Varian-Cary 400 Bio spectrophotometer fitted with a Peltier heating accessory. Heating was applied at a rate of 1° C./min in the 45 to 98° C. temperature range, with optical and temperature data sampling at 200 ms intervals. A separate experiment was carried out using buffer alone, and this baseline was subtracted from each DNA melting curve before data treatment. Optical data were imported into the Origin 5 program (MicroCal Inc., Northampton, Mass.) for analysis. DNA helix→coil transition temperatures (Tm) were determined at the midpoint of the normalized melting profiles using a published analytical procedure (Jones, G. B., et al., Anti-Cancer Drug Design, 5(3), 249-264 (1990)). Results are given in table 1 as the mean±standard deviation from at least three determinations. Ligand-induced alterations in DNA melting behaviour (ΔTm) are given by ΔTm=Tm(DNA+ligand)−Tm(DNA), where the Tm value determined for free CT-DNA is 67.82±0.06° C. (averaged from >90 runs). All PBD compounds were dissolved in HPLC-grade MeOH to give working solutions containing ≦0.6% v/v MeOH; Tm results were corrected for the effects of MeOH co-solvent by using a linear correction term.
The above method was also carried out on the compounds of example 2, with all compounds being incubated for up to 72 hours.

[1] = system: NF-Y binding at ICB2 of Topoisomerase IIα promoter; test: NF-Y gel shift assay (EMSA) at ICB2
[2] = system: 170 bp sequence of the human Topo-IIa promoter; test: DNase I footprinting on Topo-IIa promoter (ICB1, ICB2 sites); type: binding; settings: for Concentration at which DNA binding is observed, ICB1: ICB1 site; for Concentration at which DNA binding is observed, ICB2: ICB2 site
Protocol: In a similar manner to Example 4, the affinity and sequence selectivity of certain compounds of examples 1 and 2 was evaluated by standard DNA footprinting on a 170 bp sequence of the human Topo-IIa promoter, in accordance with the technique described in Martin, C., et al.
Selected results are shown in FIG. 9, wherein the concentrations of the lanes were 0, 1.6, 8, 40, 200, 1000, 5000 and 25000 nM in each case.
The footprinting results allowed the identification of compounds that could potentially disrupt transcription factor binding at the ICB1 and ICB2 sites. […] These compounds are detailed below in table 3, showing the concentrations (μM) at which the PBD-heterocycle conjugates bind at ICB1 and ICB2.

SMILES	Induced ΔTm after incubation 0 hours (calf thymus DNA (CT-DNA)) [°C]	Induced ΔTm after incubation 4 hours (calf thymus DNA (CT-DNA)) [°C]	Induced ΔTm after incubation 18 hours (calf thymus DNA (CT-DNA)) [°C]	Induced ΔTm after incubation 72 hours (calf thymus DNA (CT-DNA)) [°C]	Lowest concentration at which NF-Y binding inhibition was observed [1] [µM]	Concentration at which DNA binding is observed, ICB1 [2] [µM]	Concentration at which DNA binding is observed, ICB2 [2] [µM]
COC(=O)c1cc(NC(=O)c2csc(NC(=O)CCCOc3cc4c(cc3OC)C(=O)N3CCC[C@H]3C=N4)n2)cn1C [Compound 55]	14.5	15.2	15.8	16.1			
CCOC(=O)c1nc(NC(=O)c2nc(NC(=O)c3nc(NC(=O)CCCOc4cc5c(cc4OC)C(=O)N4CCC[C@H]4C=N5)cn3C)cn2C)cn1C [Compound 77]	11.0	11.7	12.0	12.1	50		
CCOC(=O)c1nc(NC(=O)c2cc(NC(=O)c3nc(NC(=O)CCCOc4cc5c(cc4OC)C(=O)N4CCC[C@H]4C=N5)cn3C)cn2C)cn1C [Compound 81]	14.9	15.7	16.2	16.4			
COC(=O)c1cc(NC(=O)c2nc(NC(=O)c3nc(NC(=O)CCCOc4cc5c(cc4OC)C(=O)N4CCC[C@H]4C=N5)cn3C)cn2C)cn1C [Compound 75]	14.3	15.0	15.4	15.6			
CCOC(=O)c1csc(NC(=O)c2cc(NC(=O)c3cc(NC(=O)CCCOc4cc5c(cc4OC)C(=O)N4CCC[C@H]4C=N5)cn3C)cn2C)n1 [Compound 89]	16.8	17.7	18.6	18.8			
COC(=O)c1cc(NC(=O)c2csc(NC(=O)c3cc(NC(=O)CCCOc4cc5c(cc4OC)C(=O)N4CCC[C@H]4C=N5)cn3C)n2)cn1C [Compound 73]	18.5	19.9	20.7	20.9	10	5	1
CCOC(=O)c1csc(NC(=O)c2csc(NC(=O)c3cc(NC(=O)CCCOc4cc5c(cc4OC)C(=O)N4CCC[C@H]4C=N5)cn3C)n2)n1 [Compound 85]	7.5	8.0	8.4	8.4			
CCOC(=O)c1nc(NC(=O)c2cc(NC(=O)CCCOc3cc4c(cc3OC)C(=O)N3CCC[C@H]3C=N4)cn2C)cn1C [Compound 65, (11aS) Ethyl 4-({4-[4-(7-Methoxy-5-oxo-2,3,5,11a-tetrahydro-5H-pyrrolo[2,1-c][1,4]benzodiazepine-8-yloxy)-butyrylamino]-1-methyl-1H-pyrrole-2-carbonyl}-amino)-1-methyl-1H-imidazole-2-carboxylate]	10.0	10.7	11.2	11.3			
CCOC(=O)c1csc(NC(=O)c2cc(NC(=O)c3csc(NC(=O)CCCOc4cc5c(cc4OC)C(=O)N4CCC[C@H]4C=N5)n3)cn2C)n1 [Compound 87]	6.4	6.8	7.1	7.3			
CCOC(=O)c1nc(NC(=O)c2nc(NC(=O)CCCOc3cc4c(cc3OC)C(=O)N3CCC[C@H]3C=N4)cn2C)cn1C [Compound 59, (11aS) Ethyl 4-({4-[4-(7-Methoxy-5-oxo-2,3,5,11a-tetrahydro-5H-pyrrolo[2,1-c][1,4]benzodiazepine-8-yloxy)-butyrylamino]-1-methyl-1H-imidazole-2-carbonyl}-amino)-1-methyl-1H-imidazole-2-carboxylate]	10.3	10.9	11.4	11.4			
CCOC(=O)c1nc(NC(=O)c2cc(NC(=O)c3cc(NC(=O)CCCOc4cc5c(cc4OC)C(=O)N4CCC[C@H]4C=N5)cn3C)cn2C)cn1C [Compound 79]	13.9	14.8	15.2	15.5			
CCOC(=O)c1csc(NC(=O)c2csc(NC(=O)c3csc(NC(=O)CCCOc4cc5c(cc4OC)C(=O)N4CCC[C@H]4C=N5)n3)n2)n1 [Compound 83]	10.0	10.7	10.9	11.0			
CCOC(=O)c1csc(NC(=O)c2cc(NC(=O)CCCOc3cc4c(cc3OC)C(=O)N3CCC[C@H]3C=N4)cn2C)n1 [Compound 63, (11aS) Ethyl 2-({4-[4-(7-Methoxy-5-oxo-2,3,5,11a-tetrahydro-5H-pyrrolo[2,1-c][1,4]benzodiazepine-8-yloxy)-butyrylamino]-1-methyl-1H-pyrrole-2-carbonyl}-amino)-thiazole-4-carboxylate]	9.3	9.6	10.2	10.5			
COC(=O)c1cc(NC(=O)c2nc(NC(=O)c3cc(NC(=O)CCCOc4cc5c(cc4OC)C(=O)N4CCC[C@H]4C=N5)cn3C)cn2C)cn1C [Compound 71]	15.5	16.0	16.9	17.2	10	1	5
CCOC(=O)c1csc(NC(=O)c2csc(NC(=O)CCCOc3cc4c(cc3OC)C(=O)N3CCC[C@H]3C=N4)n2)n1 [Compound 61, (11aS) Ethyl 2-({2-[4-(7-Methoxy-5-oxo-2,3,5,11a-tetrahydro-5H-pyrrolo[2,1-c][1,4]benzodiazepine-8-yloxy)-butyrylamino]-thiazole-4-carbonyl}-amino)-thiazole-4-carboxylate]	7.7	8.0	8.3	8.4			
COC(=O)c1cc(NC(=O)c2nc(NC(=O)CCCOc3cc4c(cc3OC)C(=O)N3CCC[C@H]3C=N4)cn2C)cn1C [Compound 57, (11aS) Methyl 4-({4-[4-(7-Methoxy-5-oxo-2,3,5,11a-tetrahydro-5H-pyrrolo[2,1-c][1,4]benzodiazepine-8-yloxy)-butyrylamino]-1-methyl-1H-imidazole-2-carbonyl}-amino)-1-methyl-1H-pyrrole-2-carboxylate]	2.8	3.0	3.1	3.2			
